Results on 28 compounds are retold here after patent US9708334B2, “Substituted 2,4,5,6-tetrahydropyrrolo[3,4-c]pyrazole and 4,5,6,7-tetrahydro-2H-pyrazolo[4,3-c]pyridine compounds as GlyT1 inhibitors” (DART NEUROSCIENCE (CAYMAN) LTD., priority 2014, dated 2017).

SMILES strings stand for the structures.

The target in the assay is T1, GlyT1 (Homo sapiens, UniProt P48067).
T1 construct: expressed in transfected cells
T1 sequence (P48067 1-706): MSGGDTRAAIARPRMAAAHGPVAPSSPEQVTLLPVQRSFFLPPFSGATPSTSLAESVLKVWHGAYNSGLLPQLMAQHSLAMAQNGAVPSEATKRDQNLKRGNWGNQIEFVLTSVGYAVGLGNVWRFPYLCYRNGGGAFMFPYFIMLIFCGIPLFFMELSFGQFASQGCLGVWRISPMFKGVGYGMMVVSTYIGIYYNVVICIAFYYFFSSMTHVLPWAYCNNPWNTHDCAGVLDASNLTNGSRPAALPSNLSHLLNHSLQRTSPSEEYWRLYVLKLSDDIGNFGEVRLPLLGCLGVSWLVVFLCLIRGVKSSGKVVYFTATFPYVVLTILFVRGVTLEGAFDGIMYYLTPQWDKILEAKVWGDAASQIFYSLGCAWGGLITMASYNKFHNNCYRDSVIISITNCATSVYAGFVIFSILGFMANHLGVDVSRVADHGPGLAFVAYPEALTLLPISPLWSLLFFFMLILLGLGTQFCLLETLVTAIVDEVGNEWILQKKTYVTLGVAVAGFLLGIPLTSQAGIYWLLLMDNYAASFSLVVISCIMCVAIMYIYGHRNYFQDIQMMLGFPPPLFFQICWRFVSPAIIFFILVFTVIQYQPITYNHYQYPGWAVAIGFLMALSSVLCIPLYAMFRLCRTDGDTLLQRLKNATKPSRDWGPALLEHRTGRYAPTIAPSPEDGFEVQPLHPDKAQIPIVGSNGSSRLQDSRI
Nature of the assay: Glycine Transporter 1 (GlyT1) uptake assay, scintillation proximity assay of [14C]-glycine uptake. The format is cell-based. As to conditions: SPA, four parameter logistic fit, read-out: GlyT1 (pIC50) (converted). In outline: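 [14C]-glycine uptake read by scintillation proximity on a plate counter. IC50 from four-parameter logistic fit of dose-response data.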
(Scintillation proximity formats need no separation of bound from free tracer.)
As for `COc1c(C#N)ccc(O[C@@H](C)C(F)(F)F)c1C(=O)N1CCc2nn(-c3ccncc3F)cc2C1` [Example 245, 3-[2-(3-Fluoropyridin-4-yl)-2H 4H 5H 6H 7H-pyrazolo[4,3-c]pyridine-5-carbonyl]-2-methoxy-4-{[(2S)-1 1 1-trifluoropropan-2-yl]oxy}benzonitrile], the IC50 is less than 100 nM.

`COc1c(C#N)ccc(O[C@@H](C)C(F)(F)F)c1C(=O)N1Cc2cn(-c3cccnc3)nc2C1` [Example 246, 2-Methoxy-3-[2-(pyridin-3-yl)-2H 4H 5H 6H-pyrrolo[3,4-c]pyrazole-5-carbonyl]-4-{[(2S)-1 1 1-trifluoropropan-2-yl]oxy}benzonitrile]: the IC50 is less than 100 nM.

For the compound `C[C@H](Oc1ccc(C#N)c(Cl)c1C(=O)N1Cc2cn(-c3cccnc3)nc2C1)C(F)(F)F` [Example 247], the IC50 is less than 100 nM. Next, `COc1c(C#N)ccc(O[C@@H](C)C(F)(F)F)c1C(=O)N1Cc2cn(-c3ccc(F)cc3)nc2C1` [Example 248, 3-[2-(4-Fluorophenyl)-2H 4H 5H 6H-pyrrolo[3,4-c]pyrazole-5-carbonyl]-2-methoxy-4-{[(2S)-1 1 1-trifluoropropan-2-yl]oxy}benzonitrile]: less than 100 nM. Next, `C[C@H](Oc1ccc(C#N)c(Cl)c1C(=O)N1Cc2cn(-c3ccc(F)cc3)nc2C1)C(F)(F)F` [Example 249, 2-Chloro-3-[2-(4-fluorophenyl)-2H 4H 5H 6H-pyrrolo[3,4-c]pyrazole-5-carbonyl]-4-{[(2S)-1 1 1-trifluoropropan-2-yl]oxy}benzonitrile]: less than 100 nM; `COc1c(C#N)ccc(O[C@@H](C)C(F)(F)F)c1C(=O)N1Cc2cn(-c3cncc(F)c3)nc2C1` [Example 250, 3-[2-(5-Flouropyridin-3-yl)-2H 4H 5H 6H-pyrrolo[3,4-c]pyrazole-5-carbonyl]-2-methoxy-4-{[(2S)-1 1 1-trifluoropropan-2-yl]oxy}benzonitrile]: less than 100 nM; `CC(Oc1ccc(C#N)cc1C(=O)N1Cc2cn(-c3ccc(F)cn3)nc2C1)C(F)(F)F` (stereo not shown) [Example 251]: 100 to 1000 nM. The figure for `C[C@H](Oc1ccc(C#N)c(Cl)c1C(=O)N1Cc2cn(-c3cncc(F)c3)nc2C1)C(F)(F)F` [Example 252, 2-Chloro-3-[2-(5-fluoropyridin-3-yl)-2H 4H 5H 6H-pyrrolo[3,4-c]pyrazole-5-carbonyl]-4-{[(2S)-1 1 1-trifluoropropan-2-yl]oxy}benzonitrile] is less than 100 nM. As to `COc1c(C#N)ccc(O[C@@H](C)C(F)(F)F)c1C(=O)N1Cc2cn(-c3cccc(C)n3)nc2C1` [Example 253], the IC50 is less than 100 nM. The figure for `COc1c(C#N)ccc(O[C@@H](C)C(F)(F)F)c1C(=O)N1Cc2cn(-c3ccc(C(F)(F)F)nc3)nc2C1` [Example 254] is less than 100 nM; for `C[C@H](Oc1ccc(C#N)c(Cl)c1C(=O)N1CCc2[nH]nc(-c3ccc(C(F)(F)F)cc3)c2C1)C(F)(F)F` [Example 255, 2-Chloro-3-{3-[4-(trifluoromethyl)phenyl]-1H 4H 5H 6H 7H-pyrazolo[4,3-c]pyridine-5-carbonyl}-4-{[(2S)-1 1 1-trifluoropropan-2-yl]oxy}benzonitrile] it is 1000 to 10000 nM.

As for `C[C@H](Oc1ccc(C#N)c(Cl)c1C(=O)N1Cc2cn(-c3ccc(C(F)(F)F)nc3)nc2C1)C(F)(F)F` [Example 256, 2-Chloro-3-{2-[6-(trifluoromethyl)pyridin-3-yl]-2H 4H 5H 6H-pyrrolo[3,4-c]pyrazole-5-carbonyl}-4-{[(2S)-1 1 1-trifluoropropan-2-yl]oxy}benzonitrile], the IC50 is 100 to 1000 nM. In the case of `COc1c(C#N)ccc(O[C@@H](C)C(F)(F)F)c1C(=O)N1CCc2[nH]nc(-c3ccc(C(F)(F)F)cc3)c2C1` [Example 257, 2-Methoxy-3-{3[4-(trifluoromethyl)phenyl]-1H 4H 5H 6H 7H-pyrazolo[4,3-c]pyridine-5-carbonyl}-4-{[(2S)-1 1 1-trifluoropropan-2-yl]oxy}benzonitrile], the IC50 was 100 to 1000 nM.

`COc1c(C#N)ccc(C2(F)CCC2)c1C(=O)N1Cc2cn(-c3ccc(F)cn3)nc2C1` [Example 258, 4-(1-Fluorocyclobutyl)-3-[2-(5-fluoropyridin-2-yl)-2H 4H 5H 6H-pyrrolo[3,4-c]pyrazole-5-carbonyl]-2-methoxybenzonitrile]: the IC50 is 100 to 1000 nM.

As for `COc1c(C#N)ccc(C2(F)CCOCC2)c1C(=O)N1Cc2cn(-c3ccc(F)cn3)nc2C1` [Example 259, 4-(4-Fluorooxan-4-yl)-3-[2-(5-fluoropyridin-2-yl)-2H 4H 5H 6H-pyrrolo[3,4-c]pyrazole-5-carbonyl]-2-methoxybenzonitrile], the IC50 is 100 to 1000 nM. Next, `COc1c(C#N)ccc(OCC(F)(F)F)c1C(=O)N1Cc2cn(-c3ccc(F)cn3)nc2C1` [Example 260, 3-[2-(5-Fluoropyridin-2-yl)-2H 4H 5H 6H-pyrrolo[3,4-c]pyrazole-5-carbonyl]-2-methoxy-4-(2 2 2-trifluoroethoxy)benzonitrile]: 100 to 1000 nM.

Regarding `COc1c(C#N)ccc(O[C@@H](C)C(F)(F)F)c1C(=O)N1Cc2cn(-c3ncccc3F)nc2C1` [Example 261], the IC50 is less than 100 nM. Next, `C[C@H](Oc1ccc(C#N)c(Cl)c1C(=O)N1Cc2cn(-c3ncccc3F)nc2C1)C(F)(F)F` [Example 262, 2-Chloro-3-[2-(3-fluoropyridin-2-yl)-2H 4H 5H 6H-pyrrolo[3,4-c]pyrazole-5-carbonyl]-4-{[(2S)-1 1 1-trifluoropropan-2-yl]oxy}benzonitrile]: less than 100 nM; `COc1c(C#N)ccc(O[C@@H](C)C(F)(F)F)c1C(=O)N1Cc2cn(-c3ccccn3)nc2C1` [Example 263, 2-Methoxy-3-[2-(pyridin-2-yl)-2H 4H 5H 6H-pyrrolo[3,4-c]pyrazole-5-carbonyl]-4-{[(2S)-1 1 1-trifluoropropan-2-yl]oxy}benzonitrile]: less than 100 nM.

`C[C@H](Oc1ccc(C#N)c(Cl)c1C(=O)N1Cc2cn(-c3ccccn3)nc2C1)C(F)(F)F` [Example 264]: the IC50 is less than 100 nM. The figure for `Cc1ccc(-n2cc3c(n2)CN(C(=O)c2c(O[C@@H](C)C(F)(F)F)ccc(C#N)c2Cl)C3)cn1` [Example 265, 2-Chloro-3-[2-(6-methylpyridin-3-yl)-2H 4H 5H 6H-pyrrolo[3,4-c]pyrazole-5-carbonyl]-4-{[(2S)-1 1 1-trifluoropropan-2-yl]oxy}benzonitrile] is 100 to 1000 nM; for `COc1c(C#N)ccc(O[C@@H](C)C(F)(F)F)c1C(=O)N1Cc2cn(-c3ccc(C)nc3)nc2C1` [Example 266, 2-Methoxy-3-[2-(6-methylpyridin-3-yl)-2H 4H 5H 6H-pyrrolo[3,4-c]pyrazole-5-carbonyl]-4-{[(2S)-1 1 1-trifluoropropan-2-yl]oxy}benzonitrile] it is less than 100 nM; for `C[C@H](Oc1ccc(C#N)c(Cl)c1C(=O)N1Cc2cn(-c3cccc(F)c3)nc2C1)C(F)(F)F` [Example 267, 2-Chloro-3-[2-(3-fluorophenyl)-2H 4H 5H 6H-pyrrolo[3,4-c]pyrazole-5-carbonyl]-4-{[(2S)-1 1 1-trifluoropropan-2-yl]oxy}benzonitrile] it is less than 100 nM. Next, `COc1c(C#N)ccc(O[C@@H](C)C(F)(F)F)c1C(=O)N1Cc2cn(-c3cccc(F)c3)nc2C1` [Example 268, 3-[2-(3-Fluorophenyl)-2H 4H 5H 6H-pyrrolo[3,4-c]pyrazole-5-carbonyl]-2-methoxy-4-{[(2S)-1 1 1-trifluoropropan-2-yl]oxy}benzonitrile]: less than 100 nM; `C[C@H](Oc1ccc(C#N)c(Cl)c1C(=O)N1Cc2cn(-c3ccccc3F)nc2C1)C(F)(F)F` [Example 269, 2-Chloro-3-[2-(2-fluorophenyl)-2H 4H 5H 6H-pyrrolo[3,4-c]pyrazole-5-carbonyl]-4-{[(2S)-1 1 1-trifluoropropan-2-yl]oxy}benzonitrile]: less than 100 nM; `COc1c(C#N)ccc(O[C@@H](C)C(F)(F)F)c1C(=O)N1Cc2cn(-c3ccccc3F)nc2C1` [Example 270, 3-[2-(2-Fluorophenyl)-2H 4H 5H 6H-pyrrolo[3,4-c]pyrazole-5-carbonyl]-2-methoxy-4-{[(2S)-1 1 1-trifluoropropan-2-yl]oxy}benzonitrile]: less than 100 nM.

In the case of `Cc1cccnc1-n1cc2c(n1)CN(C(=O)c1c(O[C@@H](C)C(F)(F)F)ccc(C#N)c1Cl)C2` [Example 271, 2-Chloro-3-[2-(3-methylpyridin-2-yl)-2H 4H 5H 6H-pyrrolo[3,4-c]pyrazole-5-carbonyl]-4-{[(2S)-1 1 1-trifluoropropan-2-yl]oxy}benzonitrile], the IC50 is 100 to 1000 nM.

As for `COc1c(C#N)ccc(O[C@@H](C)C(F)(F)F)c1C(=O)N1Cc2cn(-c3ncccc3C)nc2C1` [Example 272, 2-Methoxy-3-[2-(3-methylpyridin-2-yl)-2H 4H 5H 6H-pyrrolo[3,4-c]pyrazole-5-carbonyl]-4-{[(2S)-1 1 1-trifluoropropan-2-yl]oxy}benzonitrile], the IC50 was less than 100 nM.
